Like-named read-outs stand apart in the source and are kept apart here. Each block holds one compound with its values, some of them ahead of it.
Target: T1, recombinant ATX (mouse ATX-β) (Mus musculus, UniProt Q9R1E6)
T1 construct: purchased Sino Biological
Assay: Inhibition of ATX, Amplex Red PLD assay kit
Assay type: biochemical
Conditions: 2 nM recombinant ATX, mean of two independent experiments
Description: The in vitro activity of the synthetic inhibitors was studied using the Amplex™ Red PLD assay kit (Molecular Probes, Interchim, Montlucon, France). Inhibitors were dissolved in DMSO (stock solution 3 mM) and appropriate dilutions were made in DMSO. […] The IC50 values were determined using the mean values obtained from two independent experiments. The IC50 values were determined graphically using the sigmoid dose-response fitting method (PrismH software) by the equation f=y0+a/(1+exp(−(x−x0)/b)) given by SigmaPlot 11.0.

[1] = hydroxamates, substrate 50 μM LPC 16:0, read-out: IC50 (μM) 16:0 LPC
[2] = thioamides/phosphonates/phosphinates, substrate 50 μM LPC 16:0, read-out: IC50 (μM) 16:0 LPC
[3] = thioamides/phosphonates/phosphinates, substrate 50 μM LPC 18:0, read-out: IC50 (μM) 18:0 LPC
[4] = hydroxamates, substrate 50 μM LPC 18:0, read-out: IC50 (μM) 18:0 LPC
[5] = thioamides/phosphonates/phosphinates, substrate 50 μM LPC 18:1, read-out: IC50 (μM) 18:1 LPC

Compound: O=C(Cc1ccc(NC(=O)CCCCC(=O)Nc2ccccc2)cc1)NO [GK285]
- IC50 [1]: 1.2 µM

- IC50 [2]: 3 µM
- IC50 [3]: 0.7 µM
Compound: CCCCCCCCCCCCCC(=S)NCCCC[PH](=O)O [GK312]

- IC50 [2]: 0.5 µM
- IC50 [3]: 1 µM
Compound: CCCCCCCCCCCCCC(=S)NCCCC[PH](=O)O [GK325]

- IC50 [2]: 0.4 µM
- IC50 [3]: 4 µM
Compound: CCCCCCCCCCCCCC(=O)Nc1ccc(CC[PH](=O)O)cc1 [GK327]

Compound: CCCCCCCCCCCCCC(=O)Nc1ccc(CC(=O)NO)cc1 [GK332]
- IC50 [1]: 1 µM
- IC50 [4]: 0.2 µM

Compound: O=C(Cc1ccc(NC(=O)CCCCCCc2ccccc2)cc1)NO [GK333]
- IC50 [1]: 0.7 µM
- IC50 [4]: 2 µM

- IC50 [1]: 0.6 µM
Compound: Nc1ccccc1NC(=O)Cc1ccc(NC(=O)CCCCC(=O)Nc2ccccc2)cc1 [GK335]

- IC50 [1]: 0.4 µM
- IC50 [4]: 5 µM
Compound: COC(=O)[C@@H](CCC(=O)NO)NC(=O)CCCCC(=O)Nc1ccccc1 [GK337]

Compound: O=C(Cc1ccc(NC(=O)CCCCNC(=O)c2ccccc2)cc1)NO [GK340]
- IC50 [1]: 1 µM
- IC50 [4]: 0.2 µM

Compound: CCCCOc1ccc(CCCCC(=O)Nc2ccc(CC(=O)NO)cc2)cc1 [GK341]
- IC50 [1]: 4 µM

Compound: CCCCCCCCc1ccc(OCC(=O)Nc2ccc(CC(=O)NO)cc2)cc1 [GK344]
- IC50 [1]: 1 µM
- IC50 [4]: 0.3 µM

Compound: CCCCCCCCc1ccc(CCC(=O)Nc2ccc(CC(=O)NO)cc2)cc1 [GK345]
- IC50 [1]: 5 µM

Compound: O=C(Cc1ccc(NC(=O)CCCCCCC(=O)Nc2ccccc2)cc1)NO [GK346]
- IC50 [1]: 2 µM

- IC50 [2]: 0.198 µM
- IC50 [5]: 0.098 µM
Compound: CCCCCCCCCCCCCC(=S)NCCCCC(=S)NCC [GK377]

Compound: CCCCCCCCCCCCCC(=S)NCCCCP(=O)(O)OCC [GK378]
- IC50 [2]: 0.12 µM
- IC50 [5]: 0.05 µM

Compound: COc1ccc(C(=O)NCCCCC(=O)Nc2ccc(CC(=O)NO)cc2)cc1 [GK381]
- IC50 [1]: 1 µM

- IC50 [1]: 4 µM
Compound: COC(=O)[C@@H](CCC(=O)NO)NC(=O)CCCCC(=O)Nc1ccc(OC)cc1 [GK382]

- IC50 [1]: 0.05 µM
Compound: COC(=O)[C@@H](CCCC(=O)NO)NC(=O)CCCCC(=O)Nc1ccccc1 [GK400]

Compound: CCCC[C@@H](CCCC(=O)NO)NC(=O)CCCCC(=O)Nc1ccccc1 [GK442]
- IC50 [1]: 0.06 µM

- IC50 [2]: 0.06 µM
Compound: CCCCCCCCCCCCNC(=S)NCCCCC(=S)NCC [GK446]

- IC50 [1]: 0.8 µM
Compound: CCCC[C@@H](CCCC(=O)NO)NC(=S)NCCCC(=O)Nc1ccccc1 [GK471]
